The values below come from patent US7718784B2, “Switchable nucleic acids for diagnostics, screening and molecular electronics” (priority 2003, dated 2010).

[dabcylT] = deoxythymidine carrying a dabcyl quencher; {FAM} = fluorescein (FAM) label; d = 2'-deoxy (DNA); r = 2'-OH (RNA)

One series has as its target NCp7 (Human immunodeficiency virus type 1 group M subtype B, UniProt P12493). The note with it: for difference in fluorescence intensity (factor): DNA analogs of the two extreme states H and O.
The subject of another series is NC. The note with it: cited from earlier work.
The next series relates to proviral DNA synthesis. The following applies: cited from earlier work.

Excerpt for NCp7: This switch has fluorescent labels, * (e.g., FAM, 6-carboxy-fluorescein), at the 5′-end of the chain and Q (a quencher, e.g., dabcyl) near the 3′-end of the DNA segment (light font). […] In the O species, * and Q are within the Förster distance for efficient quenching. However, they are far apart in the extended hairpin form, H, and the switch emits strongly.
By altering the DNA sequence, K1 is adjusted between 0.1-0.01 (K1=[O]/[H]). […] Upon addition of NCp7 (P), the K1 equilibrium shifts to the right, and the fluorescence signal decreases. The switch is set to a null signal in the presence of a slight excess of P, and is triggered to emit when a competitor, C, sequesters the protein in the P.C complex. […] Knowledge of K1, K2, and the input concentrations, Ot, Pt, and Ct will allow estimation of K3.
This allows the equilibrium shift upon changing the sequence, or adding NCp7, to be monitored very easily. Simply put, the fluorescence of pure H and O are known, so their populations in a mixed system will be just a linear function of the measured fluorescence.

For the substance “FAMd(GCTATCCACCGATAGC(T-dabcyl)CCAACACGC)-UAGCGGUGGCUAGC (DNA GCTATCCACCGATAGCTCCAACACGCUAGCGGUGGCUAGC; chemistry not fully specified) [M3]”, the “equilibration with NCp7” value in the series with NCp7 (10 nM concentration of the switch) was “within a minute”.
For “FAMd(GCTAGCCACCGCTAGC(T-dabcyl)CCAACACGC)-UAGCGGUGGCUAGC [M1]”, the “difference in fluorescence intensity (factor)” value on NCp7 came to 10.
In the case of “FAM-d(GCATGCCTCCGCATGC(T-dabcyl)CCAACACGC)-UAGCGGUGGCUAGC (DNA GCATGCCTCCGCATGCTCCAACACGCUAGCGGUGGCUAGC; sugars from the 5' end d26 r14, [dabcylT] at 17, 5' {FAM}, backbone and methylation of C not given here) [M2]”, in the series with NCp7, the “fluorescence of switch without and with NCp7” value was “bright in the absence of NCp7 and dark in its presence”; the “difference in fluorescence intensity (factor)” value is recorded as 10.
On to c(F-C-dW-R-C-K), for which the “competition with NC for in vitro recognition of its RNA, DNA and protein targets” value in the series on NC is listed as “competes with NC”. In addition, in the series on proviral DNA synthesis, the In vivo effects result was “suggest impairment of proviral DNA synthesis”.
